{"source": "the NIST ThermoML archive (doi:10.1021/je200799u)", "note": "Numbers after ± are expanded uncertainties.", "data": [{"assay": "refractive index (Na D-line) (dimensionless)", "conditions": "298.15 K; 101.33 kPa; Liquid; Standard Abbe refractometry", "values": [{"compound": "CC(=O)[O-].C[NH2+]CCO", "note": "[N-methyl-2-hydroxyethylammonium acetate]", "refractive index": "1.4584 ± 0.0012"}, {"compound": "CCCCCCCCCCCC", "note": "[dodecane]", "refractive index": "1.4196 ± 0.0007"}, {"compound": "CCCC(=O)[O-].C[NH2+]CCO", "note": "[N-methyl-2-hydroxyethylammonium butanoate]", "refractive index": "1.4555 ± 0.0012"}, {"compound": "CCCCCC(=O)[O-].C[NH2+]CCO", "note": "[N-methyl-2-hydroxyethylammonium hexanoate]", "refractive index": "1.4563 ± 0.0012"}]}]}
